Measurements taken from patent publication US7507860B2 (Pfizer Inc., priority 2004, dated 2009).
Changes are numbered by the printed parent chain. Like-named read-outs stand apart in the source and are kept apart here.

Tests used:
androgen receptor = target: T1, androgen receptor (Homo sapiens, UniProt P10275); assay: AR antagonist cell assay (MDA-MB453-MMTV clone 54-19 luciferase reporter, 100 pM DHT); type: cell-based; conditions: MDA-MB453-MMTV clone 54-19, inhibition of 100 pM DHT induction, 17 hr; mean of multiple tests; read-out: AR Cell IC50
T1 sequence (P10275 1-920 Q868H): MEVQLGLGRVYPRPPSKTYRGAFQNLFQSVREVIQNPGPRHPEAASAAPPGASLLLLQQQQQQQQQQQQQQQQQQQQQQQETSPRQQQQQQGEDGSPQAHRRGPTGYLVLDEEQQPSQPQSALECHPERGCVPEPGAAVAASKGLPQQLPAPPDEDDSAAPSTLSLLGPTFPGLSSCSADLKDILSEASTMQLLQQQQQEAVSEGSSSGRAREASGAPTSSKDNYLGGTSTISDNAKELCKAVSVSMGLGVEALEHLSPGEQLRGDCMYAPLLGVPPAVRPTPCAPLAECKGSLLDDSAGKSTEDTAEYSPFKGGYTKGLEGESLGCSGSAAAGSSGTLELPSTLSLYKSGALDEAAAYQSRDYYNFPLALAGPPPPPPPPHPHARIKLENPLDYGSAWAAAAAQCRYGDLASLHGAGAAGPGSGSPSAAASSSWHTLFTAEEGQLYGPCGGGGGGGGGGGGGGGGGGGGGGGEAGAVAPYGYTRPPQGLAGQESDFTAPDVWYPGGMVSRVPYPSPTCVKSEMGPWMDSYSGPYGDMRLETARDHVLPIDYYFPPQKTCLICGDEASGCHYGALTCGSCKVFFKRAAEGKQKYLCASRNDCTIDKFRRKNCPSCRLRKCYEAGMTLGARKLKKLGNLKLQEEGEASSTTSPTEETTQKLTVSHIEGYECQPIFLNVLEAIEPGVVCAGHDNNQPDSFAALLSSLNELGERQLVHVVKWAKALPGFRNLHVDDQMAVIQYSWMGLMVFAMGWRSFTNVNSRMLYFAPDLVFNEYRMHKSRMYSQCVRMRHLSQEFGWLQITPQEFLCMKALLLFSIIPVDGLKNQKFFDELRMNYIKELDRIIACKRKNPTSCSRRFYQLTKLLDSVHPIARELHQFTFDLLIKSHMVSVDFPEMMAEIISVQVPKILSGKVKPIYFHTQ
Procedure: The compounds ability to antagonize the effects of androgen on the androgen receptor were determined in a whole cell assay as described immediately below.
Experimental Procedure for AR Antagonist Cell Assay
This cell line is a stable transfected cell line with MDA-MB453 cell background (a human breast tumor cell line expressing androgen receptor). A MMTV minimal promoter containing ARE was first cloned in front of a firefly luciferase reporter gene. Then the cascade was cloned into transfection vector pUV120puro. […] Puromycin resistant stable cell line was selected. Cell Culture Media and Reagents:
Plating medium: DMEM (phenol red free), 10% charcoal treated HyClone serum, 1% L-glutamine
Assay medium: DMEM (phenol red free), 1% charcoal treated HyClone serum, 1% L-glutamine, and 1% penicillin/streptomycin
• 1. Cells are maintained in culture medium, splitting cells when they reach 80-90% confluence • 2. To test compounds, 10,000 cells/well are plated to opaque 96 cell culture plate in 100 ul/well plating medium, culture for overnight at 37° C. in cell culture incubator • 3. […] Add 10 ul/well freshly prepared DHT (final concentration at 100 pM) to each well, incubate at 37° C. for 17 hr (overnight) • 5.
The results are reported as the mean of multiple tests as described below (the numbers of tests are indicated in the footnote). N.D. denotes that the compound was not tested.

[1] = target: T2, human androgen receptor (hAR) (Homo sapiens, UniProt P10275); assay: Competitive binding analysis on baculovirus/Sf9 generated hAR extracts with 3H-DHT tracer; conditions: hAR extract, 1 nM 3H-DHT, one hour at 4° C, mean of multiple tests
T2 construct: made in house; host or cells: baculovirus/Sf9 insect cells (crude extract)
T2 sequence (P10275 1-920): T1 sequence (P10275 1-920 Q868H) with H868Q
Outline: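 Baculovirus/Sf9-expressed hAR extract incubated with hydroxylapatite, 1 nM 3H-DHT and decreasing compound concentrations for 1 h at 4 °C, then washed three times to remove unbound tracer. Bound 3H-DHT compared with no-competitor maximum; affinity given as concentration inhibiting half of maximum binding, mean of multiple tests.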

Row | SMILES | IC50 (androgen receptor) | IC50 ([1]; read-out: AR Binding IC50) | IC50 ([1]; AR Binding IC50 (nM))
1 | COc1ccc(CCNC(=O)C(CC(C)C)Oc2ccc(C#N)c(C(F)(F)F)c2)cc1 (centres unmarked) [Example 34, 2-(4-Cyano-3-trifluoromethyl-phenoxy)-4-methyl-pentanoic acid [2-(4-methoxyphenyl)-ethyl]amide] | > 1 µM | 68 nM | 
2 | COc1ccccc1CNC(=O)C(CC(C)C)Oc1ccc(C#N)c(C(F)(F)F)c1 (centres unmarked) [Example 35, 2-(4-Cyano-3-trifluoromethyl-phenoxy)-4-methyl-pentanoic acid-2-methoxy-benzylamide] | 0.768 µM | 77 nM | 
3 | CCOc1ccccc1CNC(=O)C(CC(C)C)Oc1ccc(C#N)c(C(F)(F)F)c1 (centres unmarked) [Example 36, 2-(4-Cyano-3-trifluoromethyl-phenoxy)-4-methyl-pentanoic acid-2-ethoxy-benzylamide] | > 1 µM | 42 nM | 
4 | Cc1cccc(CNC(=O)C(CC(C)C)Oc2ccc(C#N)c(C(F)(F)F)c2)c1 (centres unmarked) [Example 37, 2-(4-Cyano-3-trifluoromethyl-phenoxy)-4-methyl-pentanoic acid-3-methyl-benzylamide] | > 1 µM | 41 nM | 
5 | Cc1ccccc1CNC(=O)C(CC(C)C)Oc1ccc(C#N)c(C(F)(F)F)c1 (centres unmarked) [Example 38, 2-(4-Cyano-3-trifluoromethyl-phenoxy)-4-methyl-pentanoic acid-2-methyl-benzylamide] | > 1 µM | 15 nM | 
6 | COc1ccc(CNC(=O)C(CC(C)C)Oc2ccc(C#N)c(C(F)(F)F)c2)cc1 (centres unmarked) [Example 39, 2-(4-Cyano-3-trifluoromethyl-phenoxy)-4-methyl-pentanoic acid-4-methoxy-benzylamide] | > 1 µM | 42 nM | 
7 | CCCC(Oc1ccc(C#N)c(C(F)(F)F)c1)C(=O)NCc1ccccc1OC (centres unmarked) [Example 41, 2-(4-Cyano-3-trifluoromethyl-phenoxy)-pentanoic acid-2-methoxy-benzylamide] | 0.13 µM | 171 nM | 
8 | CCCC(Oc1ccc(C#N)c(C(F)(F)F)c1)C(=O)NCc1ccccc1OCC (centres unmarked) [Example 42, 2-(4-Cyano-3-trifluoromethyl-phenoxy)-pentanoic acid-2-ethoxy-benzylamide] | > 1 µM | 139 nM | 
9 | CCCC(Oc1ccc(C#N)c(C(F)(F)F)c1)C(=O)NCc1cccc(C)c1 (centres unmarked) [Example 43, 2-(4-Cyano-3-trifluoromethyl-phenoxy)-pentanoic acid-3-methyl-benzylamide] | 0.105 µM | 99 nM | 
10 | CCCC(Oc1ccc(C#N)c(C(F)(F)F)c1)C(=O)NCc1ccccc1C (centres unmarked) [Example 44, 2-(4-Cyano-3-trifluoromethyl-phenoxy)-pentanoic acid-2-methyl-benzylamide] | 0.037 µM |  | 42 nM
11 | CCCC(Oc1ccc(C#N)c(C(F)(F)F)c1)C(=O)NCc1ccc(C)cc1C (centres unmarked) [Example 45, 2-(4-Cyano-3-trifluoromethyl-phenoxy)-pentanoic acid-2,4-dimethyl-benzylamide] | > 1 µM | 58 nM | 
12 | CCCC(Oc1ccc(C#N)c(C(F)(F)F)c1)C(=O)NCc1ccc(OC)cc1 (centres unmarked) [Example 46, 2-(4-Cyano-3-trifluoromethyl-phenoxy)-pentanoic acid-4-methoxy-benzylamide] | 0.638 µM | 103 nM | 
13 | Cc1ccc(CCNC(=O)C(CC(C)C)Oc2ccc(C#N)c(C(F)(F)F)c2)cc1 (centres unmarked) [Example 47, 2-(4-Cyano-3-trifluoromethyl-phenoxy)-4-methyl-pentanoic acid-(2-p-tolyl-ethyl)amide] | > 1 µM | 144 nM | 
14 | COc1ccccc1CCNC(=O)C(CC(C)C)Oc1ccc(C#N)c(C(F)(F)F)c1 (centres unmarked) [Example 48, 2-(4-Cyano-3-trifluoromethyl-phenoxy)-4-methyl-pentanoic acid-[2-(2-methoxyphenyl)-ethyl]-amide] | > 1 µM | 123 nM | 
15 | Cc1cccc(CCNC(=O)C(CC(C)C)Oc2ccc(C#N)c(C(F)(F)F)c2)c1 (centres unmarked) [Example 49, 2-(4-Cyano-3-trifluoromethyl-phenoxy)-4-methyl-pentanoic acid-(2-m-tolyl-ethyl)amide] | > 1 µM | 75 nM | 
16 | CC(C)CC(Oc1ccc(C#N)c(C(F)(F)F)c1)C(=O)NCC(C)Oc1ccccc1 (centres unmarked) [Example 53, 2-(4-Cyano-3-trifluoromethyl-phenoxy)-4-methyl-pentanoic acid-(2-phenoxypropyl)-amide] | 0.299 µM | 59 nM | 
17 | CC(C)CC(Oc1ccc(C#N)c(C(F)(F)F)c1)C(=O)NC1CCc2ccccc21 (centres unmarked) [Example 54, 2-(4-Cyano-3-trifluoromethyl-phenoxy)-4-methyl-pentanoic acid indan-1-yl-amide] | 0.836 µM | 70 nM | 
18 | CCCC(Oc1ccc(C#N)c(C(F)(F)F)c1)C(=O)NCC(C)Oc1ccccc1 (centres unmarked) [Example 55, 2-(4-Cyano-3-trifluoromethyl-phenoxy)-pentanoic acid-(2-phenoxy-propyl)-amide] | 0.393 µM | 182 nM | 
19 | CCCC(Oc1ccc(C#N)c(C(F)(F)F)c1)C(=O)NCCOc1ccccc1 (centres unmarked) [Example 56, 2-(4-Cyano-3-trifluoromethyl-phenoxy)-pentanoic acid-(2-phenoxy-ethyl)-amide] | 0.79 µM | 157 nM | 
20 | CCCC(Oc1ccc(C#N)c(C(F)(F)F)c1)C(=O)NC1CCc2ccccc21 (centres unmarked) [Example 57, 2-(4-Cyano-3-trifluoromethyl-phenoxy)-pentanoic acid indan-1-yl-amide] | 0.561 µM | 146 nM | 
21 | COc1cccc(CCNC(=O)C(CC(C)C)Oc2ccc(C#N)c(C(F)(F)F)c2)c1 (centres unmarked) [Example 58, 2-(4-Cyano-3-trifluoromethyl-phenoxy)-4-methyl-pentanoic acid-[2-(3-methoxyphenyl)-ethyl]-amide] | > 1 µM | 64 nM | 
22 | CC(C)CC(Oc1ccc(C#N)c(C(F)(F)F)c1)C(=O)NCCc1c[nH]c2ccccc12 (centres unmarked) [Example 59, 2-(4-Cyano-3-trifluoromethyl-phenoxy)-4-methyl-pentanoic acid [2-(1H-indol-3-yl)ethyl]amide] | 0.101 µM | 48 nM | 
